The source made the active and inactive calls.
Tests used:
[1] = molecular target: NACHT, LRR and PYD domains-containing protein 3 (Homo sapiens, UniProt Q96P20); assay: NALP3 inhibitors in yeast, dose response, luminescent (AID 488799); format: functional
Protein skinhead-1 = molecular target: T1, Protein skinhead-1 (Caenorhabditis elegans, UniProt P34707); format: functional
T1 sequence (P34707 whole entry): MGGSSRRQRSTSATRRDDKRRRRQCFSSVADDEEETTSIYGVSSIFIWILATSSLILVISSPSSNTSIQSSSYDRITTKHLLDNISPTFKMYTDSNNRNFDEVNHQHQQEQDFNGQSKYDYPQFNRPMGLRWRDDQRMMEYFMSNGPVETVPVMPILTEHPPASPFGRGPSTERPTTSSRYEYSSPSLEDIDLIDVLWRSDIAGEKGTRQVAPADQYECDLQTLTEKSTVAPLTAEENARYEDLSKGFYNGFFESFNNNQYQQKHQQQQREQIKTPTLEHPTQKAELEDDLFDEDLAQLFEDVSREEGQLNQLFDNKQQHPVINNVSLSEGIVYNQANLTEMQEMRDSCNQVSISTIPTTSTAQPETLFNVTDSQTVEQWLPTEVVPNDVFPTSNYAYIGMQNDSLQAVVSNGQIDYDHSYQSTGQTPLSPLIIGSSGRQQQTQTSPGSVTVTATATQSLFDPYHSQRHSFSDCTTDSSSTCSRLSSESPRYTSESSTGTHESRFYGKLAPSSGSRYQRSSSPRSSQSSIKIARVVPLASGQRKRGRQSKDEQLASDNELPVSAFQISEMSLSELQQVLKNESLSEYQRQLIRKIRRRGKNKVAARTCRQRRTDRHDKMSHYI

[2] = NIH-3T3 fibroblast cytotoxicity, dose response, cytotoxicity control, cell-based, fluorescence, Alamar Blue, secondary assay (AID 2327); format: functional;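 note: NIH-3T3 mouse fibroblasts cultured with fluconazole at 8 µg/mL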
[3] = system: Streptococcus sp. 'group A'; assay: growth inhibition of control SK(-) GAS strain, dose response, counter-screen for streptokinase expression inhibitor project, luminescence, kanamycin, BacTiterGlo, confirmation (AID 1900); format: functional, organism-based
Streptokinase A = molecular target: T2, Streptokinase A (Streptococcus pyogenes serotype M1, UniProt P10520); assay: S. pyogenes streptokinase expression inhibitors, potency, dose response, plasminogen activation absorbance, OD405 (AID 1914); format: functional, Streptococcus pyogenes M1 GAS;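 note: secreted streptokinase activity via plasminogen activation per viability signal from cell pellet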
T2 sequence (P10520 whole entry): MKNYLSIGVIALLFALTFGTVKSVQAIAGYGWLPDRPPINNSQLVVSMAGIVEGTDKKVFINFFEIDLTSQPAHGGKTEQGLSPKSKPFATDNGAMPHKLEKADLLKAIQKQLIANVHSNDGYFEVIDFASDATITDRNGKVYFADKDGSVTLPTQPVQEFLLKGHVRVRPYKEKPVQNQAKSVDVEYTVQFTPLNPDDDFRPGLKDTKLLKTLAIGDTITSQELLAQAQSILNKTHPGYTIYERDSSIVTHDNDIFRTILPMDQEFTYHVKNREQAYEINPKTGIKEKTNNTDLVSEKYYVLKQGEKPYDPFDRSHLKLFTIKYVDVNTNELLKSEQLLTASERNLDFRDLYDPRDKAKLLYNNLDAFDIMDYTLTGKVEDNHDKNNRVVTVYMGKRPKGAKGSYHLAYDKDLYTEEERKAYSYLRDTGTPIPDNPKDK

[4] = C. albicans growth with fluconazole, confirmation, fluorescence, retest (AID 2467); format: functional, cell-based
Streptococcus = assay: Group A Streptococcus viability loss, dose response, counter-screen for streptokinase expression inhibitor project, luminescence, BacTiterGlo (AID 1915); format: functional, organism-based;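 note: potency for reduction of bacterial viability or growth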
[5] = THP-1 cell cytotoxicity, dose response, cytotoxicity control for non-replicating M. tuberculosis project (AID 489025); format: functional
[6] = HepG2 cell cytotoxicity, dose response, cytotoxicity control for non-replicating M. tuberculosis project (AID 489018); format: functional; settings: Mycobacterium tuberculosis
[7] = molecular target: T3, Ubiquitin-conjugating enzyme E2 N (Homo sapiens, UniProt P61088); format: functional;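 note: Dose-response confirmation in a TR-FRET assay detecting UBC13-driven polyubiquitin chain formation, inhibition measured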
T3 sequence (P61088 whole entry): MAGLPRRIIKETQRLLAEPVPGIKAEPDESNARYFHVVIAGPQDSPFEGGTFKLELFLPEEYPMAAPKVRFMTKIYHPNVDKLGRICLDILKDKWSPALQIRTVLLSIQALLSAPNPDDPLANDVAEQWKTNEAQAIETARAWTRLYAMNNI

Beta-galactosidase = Beta-galactosidase (Escherichia coli, UniProt Q8VNN2); assay: beta-galactosidase enzyme inhibitors and activators, dose response, artefact control for CCR6 antagonist project, biochemical, E. coli enzyme, set 3 (AID 504712); format: functional
[8] = Vero E6 cell cytotoxicity, dose response, cytotoxicity control for non-replicating M. tuberculosis project, secondary assay (AID 492998); format: functional, VeroE6; settings: Vero C1008
cells = format: functional
[9] = molecular target: Voltage-dependent T-type calcium channel subunit alpha-1H (Homo sapiens, UniProt O95180); assay: Cav3.2 T-type channel inhibitors, cell-based, synthetic library set 1, calcium flux (AID 493022); format: functional
Vero [10] = assay: cytotoxicity of synthesized analogs in Vero 76, SAR follow-up, cytotoxicity control for West Nile virus antiviral project, Vero 76 cells (AID 2414); format: functional; settings: Chlorocebus sabaeus
[11] = HEp-2 cell cytotoxicity, dose response, cytotoxicity control for RSV inhibitor project, HTS (AID 2410); format: functional; settings: human respiratory syncytial virus
Vero [12] = assay: cytotoxicity of synthesized analogs in Vero cells, SAR follow-up, cytotoxicity control for West Nile virus antiviral project, cell-based, set II (AID 2402); format: functional; settings: Chlorocebus sabaeus
Vero [13] = assay: Vero E6 cell cytotoxicity, SAR follow-up, cytotoxicity control for West Nile virus antiviral project, synthesized analogs (AID 2244); format: functional; settings: Chlorocebus sabaeus
[14] = A Cell Based Assay for the Identification of Probe candidate Compounds with Anti- Venezuelan Equine Encephalitis virus. [Related pubchem assays: 2409, 2419, 1621, 2238, 2405, 2024, 2065, 2402, 2414, 1635, 1650, 2244 ]; format: functional
Vero [15] = assay: West Nile virus CPE inhibition, SAR follow-up, cell-based, synthesized analogs (AID 2238); format: functional; settings: Chlorocebus sabaeus
Vero [16] = assay: West Nile virus antiviral activity, cell-based, CPE readout (AID 1621); format: functional; settings: Chlorocebus sabaeus
Vero [17] = assay: cells; format: functional, cell-based; settings: Chlorocebus sabaeus
Vero [18] = assay: cells; format: functional; settings: Chlorocebus sabaeus
[19] = molecular target: Endoplasmic reticulum aminopeptidase 1 (Homo sapiens, UniProt Q9NZ08); assay: ERAP1 aminopeptidase inhibitors, dose response, biochemical, cherry-pick, set 2, plate reader (AID 743314)
[20] = molecular target: Envelope glycoprotein gp160 (Human immunodeficiency virus 1, UniProt Q6QLK5); assay: inhibitors of HIV fusion peptide binding, primary screen, biochemical, uHTS, fluorescence dequenching (AID 1986)
[21] = molecular target: FAD-linked sulfhydryl oxidase ALR (Homo sapiens, UniProt P55789); assay: inhibitors of human ALR sulfhydryl oxidase, dose response, biochemical, H2O2 detection, luminescence, cherry-pick (AID 493248)
[22] = molecular target: Intestinal-type alkaline phosphatase (Homo sapiens, UniProt P09923); assay: Dose Response confirmation of uHTS hits from a small molecule inhibitors of human intestinal alkaline phosphatase via a luminescent assay. [Related pubchem assays (depositor defined):AID2544, AID2574]; format: functional
[23] = molecular target: T4, Short transient receptor potential channel 4 (Mus musculus, UniProt Q9QUQ5); assay: TRPC4 positive allosteric modulators, dose response, cell-based, HEK293 TRPC4/mu-opioid, Fluo-4 calcium, EC20 DAMGO (AID 434941); format: functional
T4 sequence (Q9QUQ5 whole entry): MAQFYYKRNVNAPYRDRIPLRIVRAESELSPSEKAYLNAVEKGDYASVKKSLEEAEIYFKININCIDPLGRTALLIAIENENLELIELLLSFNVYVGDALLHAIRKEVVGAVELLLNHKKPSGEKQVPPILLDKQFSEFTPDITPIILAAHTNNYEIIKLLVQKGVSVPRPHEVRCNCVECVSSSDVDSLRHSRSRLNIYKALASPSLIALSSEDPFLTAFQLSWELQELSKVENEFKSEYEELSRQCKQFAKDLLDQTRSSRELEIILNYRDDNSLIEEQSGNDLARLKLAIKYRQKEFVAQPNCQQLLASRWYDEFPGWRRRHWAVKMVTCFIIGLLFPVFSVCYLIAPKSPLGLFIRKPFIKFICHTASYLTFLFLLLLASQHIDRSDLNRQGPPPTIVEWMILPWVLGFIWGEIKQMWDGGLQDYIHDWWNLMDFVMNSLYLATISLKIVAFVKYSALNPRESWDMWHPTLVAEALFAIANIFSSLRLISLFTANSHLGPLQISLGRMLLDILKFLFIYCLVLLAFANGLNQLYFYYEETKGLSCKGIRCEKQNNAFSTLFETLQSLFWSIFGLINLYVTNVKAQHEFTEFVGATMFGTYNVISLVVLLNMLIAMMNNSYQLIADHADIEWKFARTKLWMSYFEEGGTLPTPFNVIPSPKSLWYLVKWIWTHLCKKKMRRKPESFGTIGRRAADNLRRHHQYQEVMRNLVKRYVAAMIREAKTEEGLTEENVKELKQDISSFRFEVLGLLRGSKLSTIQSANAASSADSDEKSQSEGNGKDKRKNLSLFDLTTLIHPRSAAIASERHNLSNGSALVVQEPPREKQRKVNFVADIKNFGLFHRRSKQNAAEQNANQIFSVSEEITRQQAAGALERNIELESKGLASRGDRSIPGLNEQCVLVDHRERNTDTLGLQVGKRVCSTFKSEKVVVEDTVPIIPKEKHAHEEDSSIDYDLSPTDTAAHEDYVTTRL

CAAX prenyl protease 2 = CAAX prenyl protease 2 (Saccharomyces cerevisiae S288c, UniProt Q03530); format: biochemical
[24] = molecular target: T5, DNA repair and recombination protein RAD54-like (Homo sapiens, UniProt Q92698); assay: inhibitors of human RAD54 branch migration, confirmation, biochemical, fluorescence, cherry-picked samples, dose series (AID 651657); format: functional
T5 sequence (Q92698 whole entry): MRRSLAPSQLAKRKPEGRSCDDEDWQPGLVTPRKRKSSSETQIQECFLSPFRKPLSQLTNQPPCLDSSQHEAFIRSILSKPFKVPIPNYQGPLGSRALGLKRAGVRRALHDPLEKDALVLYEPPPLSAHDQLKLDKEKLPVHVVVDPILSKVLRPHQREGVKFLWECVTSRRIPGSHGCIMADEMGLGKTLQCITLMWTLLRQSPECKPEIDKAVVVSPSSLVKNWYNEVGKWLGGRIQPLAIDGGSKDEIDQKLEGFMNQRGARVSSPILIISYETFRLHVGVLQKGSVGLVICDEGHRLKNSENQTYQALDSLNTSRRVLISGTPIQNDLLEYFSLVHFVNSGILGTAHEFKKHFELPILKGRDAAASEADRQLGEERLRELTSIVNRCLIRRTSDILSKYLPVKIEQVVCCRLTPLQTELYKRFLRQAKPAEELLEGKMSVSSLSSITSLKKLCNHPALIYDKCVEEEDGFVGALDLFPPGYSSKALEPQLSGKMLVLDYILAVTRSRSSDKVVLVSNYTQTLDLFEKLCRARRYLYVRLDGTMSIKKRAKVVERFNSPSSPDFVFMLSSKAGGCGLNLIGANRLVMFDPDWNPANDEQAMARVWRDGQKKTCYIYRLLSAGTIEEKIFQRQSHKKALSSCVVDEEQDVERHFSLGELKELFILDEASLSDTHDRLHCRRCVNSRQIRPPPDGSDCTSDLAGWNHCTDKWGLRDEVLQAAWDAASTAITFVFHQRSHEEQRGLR

Chain of Voltage-dependent T-type calcium channel subunit alpha-1H (O95180 whole entry): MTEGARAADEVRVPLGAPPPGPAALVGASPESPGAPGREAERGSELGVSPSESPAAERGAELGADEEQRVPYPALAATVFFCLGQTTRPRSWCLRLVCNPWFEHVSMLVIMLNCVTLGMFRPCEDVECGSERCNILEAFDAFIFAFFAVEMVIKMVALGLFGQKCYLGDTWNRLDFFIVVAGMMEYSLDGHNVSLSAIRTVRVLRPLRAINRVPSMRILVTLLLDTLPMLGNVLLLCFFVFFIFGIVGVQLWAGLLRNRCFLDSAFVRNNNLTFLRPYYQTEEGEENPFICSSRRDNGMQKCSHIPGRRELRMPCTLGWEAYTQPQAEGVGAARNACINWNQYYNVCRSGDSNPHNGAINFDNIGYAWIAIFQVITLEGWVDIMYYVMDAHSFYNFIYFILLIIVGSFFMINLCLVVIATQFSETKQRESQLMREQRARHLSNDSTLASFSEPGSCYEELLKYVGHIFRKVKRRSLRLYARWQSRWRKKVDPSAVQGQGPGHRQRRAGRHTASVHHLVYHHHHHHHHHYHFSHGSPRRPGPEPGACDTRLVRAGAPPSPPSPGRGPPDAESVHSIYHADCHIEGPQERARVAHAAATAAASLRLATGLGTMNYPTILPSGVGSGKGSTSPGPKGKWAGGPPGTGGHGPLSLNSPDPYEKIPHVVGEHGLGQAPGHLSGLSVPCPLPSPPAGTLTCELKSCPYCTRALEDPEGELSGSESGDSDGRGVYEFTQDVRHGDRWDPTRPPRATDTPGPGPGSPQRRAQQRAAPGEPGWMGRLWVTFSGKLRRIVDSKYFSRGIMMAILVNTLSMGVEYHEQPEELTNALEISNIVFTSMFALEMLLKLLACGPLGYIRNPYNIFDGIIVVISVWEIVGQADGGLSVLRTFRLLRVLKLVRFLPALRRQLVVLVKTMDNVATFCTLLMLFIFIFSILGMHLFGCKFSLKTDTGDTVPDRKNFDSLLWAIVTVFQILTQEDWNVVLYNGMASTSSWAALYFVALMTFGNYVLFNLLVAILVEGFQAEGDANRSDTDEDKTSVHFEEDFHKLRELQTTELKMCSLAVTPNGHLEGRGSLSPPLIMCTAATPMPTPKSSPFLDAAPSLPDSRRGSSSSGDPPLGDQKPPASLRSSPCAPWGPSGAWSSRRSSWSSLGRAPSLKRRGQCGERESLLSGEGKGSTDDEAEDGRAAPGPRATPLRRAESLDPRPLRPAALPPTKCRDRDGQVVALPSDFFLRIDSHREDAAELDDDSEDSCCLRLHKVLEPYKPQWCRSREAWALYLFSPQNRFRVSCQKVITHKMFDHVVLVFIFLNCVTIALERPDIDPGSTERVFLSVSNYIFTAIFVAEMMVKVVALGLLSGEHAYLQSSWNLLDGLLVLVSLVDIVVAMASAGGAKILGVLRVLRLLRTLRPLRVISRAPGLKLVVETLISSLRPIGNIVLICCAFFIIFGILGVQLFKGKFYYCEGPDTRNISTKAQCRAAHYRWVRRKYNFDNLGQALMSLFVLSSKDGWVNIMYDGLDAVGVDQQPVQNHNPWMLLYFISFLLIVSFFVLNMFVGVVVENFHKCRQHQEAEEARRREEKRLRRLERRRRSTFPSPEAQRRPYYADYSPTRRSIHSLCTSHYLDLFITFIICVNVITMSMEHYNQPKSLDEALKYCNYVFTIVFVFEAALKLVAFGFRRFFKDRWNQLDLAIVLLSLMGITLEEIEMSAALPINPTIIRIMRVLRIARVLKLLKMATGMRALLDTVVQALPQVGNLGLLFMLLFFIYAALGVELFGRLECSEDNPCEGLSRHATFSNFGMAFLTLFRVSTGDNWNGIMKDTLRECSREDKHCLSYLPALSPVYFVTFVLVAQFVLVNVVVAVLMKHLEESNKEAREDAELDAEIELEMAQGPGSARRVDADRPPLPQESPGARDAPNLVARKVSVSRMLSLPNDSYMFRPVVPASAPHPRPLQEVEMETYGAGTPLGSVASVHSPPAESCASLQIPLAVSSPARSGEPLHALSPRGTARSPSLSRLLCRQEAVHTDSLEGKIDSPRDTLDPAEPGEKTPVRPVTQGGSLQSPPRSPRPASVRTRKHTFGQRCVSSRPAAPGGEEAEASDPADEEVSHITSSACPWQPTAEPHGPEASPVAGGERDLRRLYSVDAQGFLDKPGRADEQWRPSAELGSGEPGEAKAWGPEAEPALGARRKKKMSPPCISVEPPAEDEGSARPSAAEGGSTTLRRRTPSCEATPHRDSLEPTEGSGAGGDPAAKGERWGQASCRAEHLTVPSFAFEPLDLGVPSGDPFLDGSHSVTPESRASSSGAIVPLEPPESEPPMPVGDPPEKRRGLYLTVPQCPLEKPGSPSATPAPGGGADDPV
Chain of Intestinal-type alkaline phosphatase (P09923 whole entry): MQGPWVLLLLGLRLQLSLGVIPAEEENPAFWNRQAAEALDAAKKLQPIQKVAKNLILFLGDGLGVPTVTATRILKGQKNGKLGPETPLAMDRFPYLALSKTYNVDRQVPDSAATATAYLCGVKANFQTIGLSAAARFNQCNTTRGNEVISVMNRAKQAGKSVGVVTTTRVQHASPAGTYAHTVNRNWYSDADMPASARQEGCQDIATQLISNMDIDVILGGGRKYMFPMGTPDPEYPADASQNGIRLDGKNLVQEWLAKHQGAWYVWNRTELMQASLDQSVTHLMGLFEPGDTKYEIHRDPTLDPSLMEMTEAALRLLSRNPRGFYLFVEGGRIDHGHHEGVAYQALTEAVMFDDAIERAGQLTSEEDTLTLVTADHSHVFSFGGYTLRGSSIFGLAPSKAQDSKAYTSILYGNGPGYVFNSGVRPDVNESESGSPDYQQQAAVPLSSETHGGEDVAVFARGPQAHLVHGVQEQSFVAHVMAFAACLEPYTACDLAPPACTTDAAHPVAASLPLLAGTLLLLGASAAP
Chain of NACHT, LRR and PYD domains-containing protein 3 (Q96P20 whole entry, the tested form may be a part): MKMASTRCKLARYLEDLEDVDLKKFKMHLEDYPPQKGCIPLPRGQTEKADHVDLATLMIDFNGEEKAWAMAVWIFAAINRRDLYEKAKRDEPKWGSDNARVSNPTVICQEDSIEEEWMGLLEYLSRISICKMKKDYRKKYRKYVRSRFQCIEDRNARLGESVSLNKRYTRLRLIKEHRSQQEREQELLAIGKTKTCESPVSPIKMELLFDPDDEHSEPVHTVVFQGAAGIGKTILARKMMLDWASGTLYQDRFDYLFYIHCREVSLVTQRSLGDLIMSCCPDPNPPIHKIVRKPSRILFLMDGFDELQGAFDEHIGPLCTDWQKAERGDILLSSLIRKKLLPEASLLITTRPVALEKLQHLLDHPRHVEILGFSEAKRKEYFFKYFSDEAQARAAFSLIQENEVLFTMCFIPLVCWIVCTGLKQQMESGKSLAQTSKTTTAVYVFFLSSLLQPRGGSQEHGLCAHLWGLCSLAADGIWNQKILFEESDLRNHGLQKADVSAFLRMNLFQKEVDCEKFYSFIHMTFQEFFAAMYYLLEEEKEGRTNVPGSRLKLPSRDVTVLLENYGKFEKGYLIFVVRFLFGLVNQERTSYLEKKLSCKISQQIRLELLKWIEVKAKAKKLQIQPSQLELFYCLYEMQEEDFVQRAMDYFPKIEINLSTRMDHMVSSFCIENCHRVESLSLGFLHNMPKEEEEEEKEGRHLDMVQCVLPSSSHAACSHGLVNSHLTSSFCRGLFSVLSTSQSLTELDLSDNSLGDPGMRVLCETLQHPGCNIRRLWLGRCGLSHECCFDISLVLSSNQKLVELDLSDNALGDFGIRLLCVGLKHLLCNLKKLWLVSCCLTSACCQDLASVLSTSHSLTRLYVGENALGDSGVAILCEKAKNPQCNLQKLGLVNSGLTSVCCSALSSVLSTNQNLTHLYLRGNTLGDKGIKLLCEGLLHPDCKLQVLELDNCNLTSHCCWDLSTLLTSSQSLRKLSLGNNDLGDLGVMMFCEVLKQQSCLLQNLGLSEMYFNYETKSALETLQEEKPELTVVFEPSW
Chain of Endoplasmic reticulum aminopeptidase 1 (Q9NZ08 whole entry, the tested form may be a part): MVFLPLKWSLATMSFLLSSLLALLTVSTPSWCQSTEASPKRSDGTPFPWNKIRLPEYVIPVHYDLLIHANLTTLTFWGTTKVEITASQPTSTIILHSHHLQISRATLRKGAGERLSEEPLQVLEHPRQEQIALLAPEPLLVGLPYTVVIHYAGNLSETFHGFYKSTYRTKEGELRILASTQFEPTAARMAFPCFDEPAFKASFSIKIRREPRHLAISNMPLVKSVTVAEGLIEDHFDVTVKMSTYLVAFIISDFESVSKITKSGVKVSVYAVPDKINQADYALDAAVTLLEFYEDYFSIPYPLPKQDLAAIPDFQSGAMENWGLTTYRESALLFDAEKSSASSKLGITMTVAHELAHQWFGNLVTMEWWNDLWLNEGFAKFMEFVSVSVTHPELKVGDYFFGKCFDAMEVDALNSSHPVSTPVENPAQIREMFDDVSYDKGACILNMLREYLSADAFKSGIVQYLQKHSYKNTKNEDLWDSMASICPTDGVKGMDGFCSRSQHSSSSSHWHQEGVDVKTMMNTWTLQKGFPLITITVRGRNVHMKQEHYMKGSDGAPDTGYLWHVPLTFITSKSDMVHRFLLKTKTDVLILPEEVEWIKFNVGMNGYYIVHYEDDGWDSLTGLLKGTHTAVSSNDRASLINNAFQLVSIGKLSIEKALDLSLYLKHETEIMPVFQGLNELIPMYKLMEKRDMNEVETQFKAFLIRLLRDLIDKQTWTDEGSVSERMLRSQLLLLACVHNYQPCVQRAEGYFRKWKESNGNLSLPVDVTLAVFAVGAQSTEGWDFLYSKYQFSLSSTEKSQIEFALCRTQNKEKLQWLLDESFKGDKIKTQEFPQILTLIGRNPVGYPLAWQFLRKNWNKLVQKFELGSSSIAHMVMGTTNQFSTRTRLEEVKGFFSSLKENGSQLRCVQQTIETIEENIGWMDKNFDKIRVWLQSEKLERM
Chain of FAD-linked sulfhydryl oxidase ALR (P55789 whole entry): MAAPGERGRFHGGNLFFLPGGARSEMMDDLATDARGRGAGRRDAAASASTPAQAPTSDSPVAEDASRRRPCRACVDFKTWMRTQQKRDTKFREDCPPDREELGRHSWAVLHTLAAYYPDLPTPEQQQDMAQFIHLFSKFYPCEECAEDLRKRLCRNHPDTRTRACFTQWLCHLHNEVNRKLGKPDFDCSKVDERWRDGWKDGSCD

In the case of `Brc1ccc(-n2cnc(-c3ccccc3)c2)cc1`, the IC50 [1] is reported as 35.4 µM (active) and the IC50 (Protein skinhead-1) is reported as > 100 µM (inactive).

For `CN(C)CCCNc1cc(C(C)(C)C)nc2c(-c3ccc(Cl)cc3)cnn12`, the EC50 [2] was 12.5 µM (active), the EC50 [3] was 1.91 µM (active) and the EC50 (Streptokinase A) was > 150 µM (not active). For the same compound, the EC50 [4] was > 38 µM (not active), the EC50 (Streptococcus) was 8.08 µM (active) and the CC50 [5] was 11.4 µM (active). For the same compound, the CC50 [6] was 13 µM (active), the IC50 [7] was > 20 µM (inactive) and the IC50 (Beta-galactosidase) was > 66.6 µM (inactive). The CC50 [8] was 10.8 µM (active), the IC50 (cells) was 12.4 µM (active) and the IC50 (Protein skinhead-1) was > 100 µM (inactive).

With `Cc1ccc(-c2nnc(NC(=O)COc3ccccc3F)o2)cc1C` the EC50 [9] was 2.3 µM (active).

In the case of `CC1CCCC(C)N1CCCNC(=O)c1cc2c(s1)-c1ccccc1OC2` (stereo not given), the CC50 (Vero [10]) is reported as 24.3 µM (active), the CC50 [11] is reported as 18.2 µM (active) and the CC50 (Vero [12]) is reported as 11 µM (active). The CC50 (Vero [13]) was 12.4 µM (active), the IC50 [14] was 11.8 µM (active) and the IC50 (Vero [15]) was > 40 µM (active). For the same compound, the IC50 (Vero [16]) was 19 µM (active), the IC50 (Vero [17]) was > 25 µM (active) and the CC50 (Vero [18]) was > 25 µM (active). The AC50 [19] was 12.5 µM (active).

With `O=C(O)c1cccc2c(-c3ccccc3)c(-c3ccccc3)[nH]c12` the IC50 [20] was 16.8 µM (active), the EC50 [3] was 6.24 µM (active) and the EC50 (Streptokinase A) was 15.6 µM (active). The EC50 (Streptococcus) was > 150 µM (not active) and the AC50 [21] was 4.56 µM (active).

For `CC(=O)N1CCOc2ccc(S(=O)(=O)N3CCCC(C)C3)cc21` (stereo not given), the IC50 [22] was > 100 µM (inactive).

In the case of `CCCCN(C)CCNC(=O)c1cc2c(-c3cccc(OC)c3)nn(C)c2s1`, the IC50 [7] is reported as > 20 µM (inactive), the EC50 [23] is reported as 0.07 µM (active) and the AC50 (CAAX prenyl protease 2) is reported as 16 µM (active). The AC50 [24] was 31.5 µM (active).

Reference: ChEMBL document CHEMBL1201862, “PubChem BioAssay data set” (2004)
